Test results reported in US9593363B2, “Methods and models for assessing anti-aging benefits of agents” (The Procter & Gamble Company, priority 2012, dated 2017).

Columns and labels:
Type in all cases: cell-based
[1] = test system: retinoid metabolism gene panel; assay: ex vivo human skin tissue culture, PCR fold change of retinoid gene panel; settings: for regulation of CYP26A1, ALDH1A2, RDH10, RARRES1 and LRAT: by Day 7 compared to Day 5, single donor, tRA media, retinol propionate topical (FIG. 6C); for regulation of CRABP2, RARG and CEBPA / regulation of Cyp26B1: day 7, 37° C., tRA media applied, retinol propionate topically applied (FIG. 6C)
Procedure: FIGS. 6A, 6B, and 6C provide heat maps illustrating the fold change for the gene panel of FIG. 3 over a 7 day time course following media dosing with the tRA and retinol propionate. The cells in FIGS. 6A, 6B, and 6C are cross-hatched in the same way as the cells in FIG. 4 (i.e., see the legend provided in FIG. 4). The tRA was media applied and the retinol propionate was topically applied to the ex-vivo tissue samples (N=6 per material), which were incubated at 37° C. and 50% relative humidity. At the end of 48 hours, 5 days and 7 days, two 4 mm punch biopsies were removed from each of the tissue samples for RNA isolation followed by PCR analysis. […] These genes are all important in retinoic acid-mediated regulation of human skin growth and differentiation.
Referring again to FIGS. 6A, 6B, and 6C, the fold change data from a single donor over a 7 day time course is shown for media application of tRA and topical application of retinol propionate.
(§1) Skin preparation involved preparation of media in advance of the arrival of skin (3× media including 500 ml DMEM plus 15 ml of antibiotic and antimycotics; the 3× referred to 3-fold levels of antibiotics/antimycotics used for the initial hour of incubation; 1× Media: 500 ml DMEM plus 5 ml of antibiotic and antimycotics). The skin arrived with the dermis (fat) side down on sterile DMEM soaked gauze in a sterile culture dish. The culture dish was taped shut and in a biohazard zip-lock baggie on an ice pack in a secondary container.
(§2) On arrival, the skin was removed from the bag and soaked in 3×DMEM media and stored at 4° C. for 1 hour. After 1 hour, the skin was removed from the 3×DMEM and rinsed with sterile 1×PBS. The skin was placed in a clean culture dish containing gauze soaked with 1×DMEM. The sample was put in culture the same day as arrival; though the sample may be stored overnight at 4° C. if desired.
(§3) In preparation for culture, the following were performed on the skin tissue. On a cutting mat, the skin tissue was positioned such that the epidermis was down and the fat was exposed. The fat was removed with a disposable scalpel by carefully grasping one corner of the skin with sterile serrated forceps and scraping the fat away with the blade held at a 45 degree angle to the skin. After the fat was removed, the surgical edges were cut off with a scalpel using a scraper as a straight edge guide and to hold the skin in place. Using the scraper as a guide, the skin was cut into 1.25 cm wide strips using a ruler (such as the one on optionally provided on the cutting mat) to measure the width. The strip was rinsed in a 100 mm culture dish containing 1×PBS. The strips were cut into 1.25 cm squares and placed in a 100 mm culture dish onto 1×DMEM soaked gauze until they were put into culture 30 minutes later (with time points of 15 minutes, 30 minutes, 45 minutes, or an hour being used in various non-limiting examples).
(§4) Culturing involved putting 2.5 ml of media or treatment into each well of a 6-well tissue plate, adding one Millicell® brand culture insert to each well, and putting 100 μl of 1×DMEM on the center of each insert membrane. The skin sample squares were selected randomly and placed into each of the inserts (one skin sample per insert), on top of the media on the membrane. The plates were stored at 33° C. (though an additional non-limiting example would be 37° C. depending on the experiment endpoint). As a control, baseline tissue measurements were collected from excess waste (cryogenics were used for snap freezing). Baseline biopsy collection involved from each tissue piece; one 4 mm punch for MTT; one 4 mm punch (snap frozen in OCT) for fresh histology; One 4 mm punch was fixed in 10% formalin for paraffin embedding and two 4 mm punches (snap frozen in liquid nitrogen) for PCR.
Culture and treatment of the model comprised replicates of n=6 (though replicates of additional quantities may be used such as n=5).

epidermal gene panel = assay: ex vivo human skin tissue culture, PCR fold change of epidermal gene panel vs untreated control; settings: 5 day time course, 33° C.; for relative fold change of epidermal gene panel (rank order): 70% relative humidity (FIG. 5A); for regulation of AQP3 / regulation of KRT10 and FLG: 70% relative humidity, tRA media applied, retinol and retinol propionate topically applied, N=6 (FIG. 5A)
Procedure: Referring to FIG. 5A, a bar graph illustrates the fold change (compared to an untreated control) for the epidermal gene panel of FIG. 3 following media dosing with trans-retinoic acid (tRA), retinol, or retinol propionate (RP) over a 5 day time course. […] The doses were applied over a 5 day time course during which tRA was media applied while retinol and retinol propionate were topically applied to the ex-vivo tissue samples (N=6 per material) incubated at 33° C. and 70% relative humidity. At the end of 5 days, two 4 mm punch biopsies were removed from each of the tissue samples for RNA isolation followed by PCR analysis.
The fold-increase/decrease in expression, versus an untreated control, was determined for the epidermal gene panel set forth in FIG. 3 for ex vivo tissue from a single donor over a 7 day time course incubated at 37° C. at a relative humidity of 55%. The test agents were applied topically.

dermal gene panel = assay: ex vivo human skin tissue culture, PCR fold change of dermal gene panel vs untreated control
Procedure: The culturing temperature can also affect the pattern and magnitude of the gene regulation in ex vivo tissue samples. Referring to FIGS. 9A and 9B, heat maps illustrate the fold changes for nine dermal genes for five different donor tissue samples incubated at 33° C. for 7 days and 50% relative humidity and five different donor tissue samples incubated at 37° C. for 7 days at 50% relative humidity. The tissue samples were treated with a media supplied dose of 20 ng/ml of TGFβ-1. […]
Referring to FIG. 18, an olive oil extract, an artichoke leaf extract, and a blend of these extracts were evaluated according to methods described herein. The cells in the table of FIG. 18 are cross-hatched in the same way as the cells in the table of FIG. 4 (i.e., see the legend provided in FIG. 4). The fold-increase/decrease in expression, versus an untreated control, was determined for the dermal gene panel set forth in FIG. 3 for ex vivo tissue from a single donor over a 7 day time course. The skin samples were incubated at a temperature of 37° C. and a relative humidity of 55%. The test agents were applied topically to the skin samples. […] This is another example of identifying actives that may synergistically provide anti-aging benefit.
as §1, §2, §3
as §4, with “Baseline biopsy collection involved from each tissue piece; one 4 mm punch for MTT; one 4 mm punch (snap frozen in OCT) for fresh histology; One 4 mm punch was fixed in 10% formalin for paraffin embedding and two 4 mm punches (snap frozen in liquid nitrogen) for PCR.” left out

TGFβ-2 and TGFβ-3 = assay: ex vivo human skin tissue culture, PCR fold change of TGFβ-2 and TGFβ-3; settings: media dosing, 33° C., 55% relative humidity, 4 and 7 days, N=6 (FIG. 4)
Procedure: FIG. 4 illustrates a heat map of the fold change of some of the genes from FIG. 3 following media dosing of ex vivo tissue samples (N=6 per material) incubated at 33° C. and 55% relative humidity with four materials over a 7 day time course. Cross-hatching is provided in some of the cells of the table in FIG. 4 to indicate statistically significant up-regulation (p value≦0.05 and p value≦0.1) and statistically significant down regulation p value≦0.05 and p value≦0.1). In addition to TGFβ-1, three exogenous materials believed to provide one or more in vivo, anti-aging skin benefits were tested. The three exogenous materials tested were a vitamin B3 compound (i.e., niacinamide), a peptide (i.e., PAL-KT brand peptide (palmitoyl-lysine-threonine)), and an olive oil extract (i.e., OLIVEM 460 brand olive oil extract). Niacinamide is believed to provide a number of cosmetic skin care benefits (see, e.g., Bissett el al. “Niacinamide: A B Vitamin that Improves Aging Facial Skin Appearance” and Draelos “Clinical Situations Conducive to Proactive Skin Health and Anti-Aging Improvement”). […]

[2] = 33° C., 7 days, 50% relative humidity, media 20 ng/ml, five donors (FIG. 9B)

| Molecule | regulation of CYP26A1, ALDH1A2, RDH10, RARRES1 and LRAT [1] | regulation of CRABP2, RARG and CEBPA ([1]; 50% relative humidity) | regulation of Cyp26B1 ([1]; 50% relative humidity) | relative fold change of epidermal gene panel (rank order) (epidermal gene panel) | regulation of AQP3 (epidermal gene panel) | regulation of KRT10 and FLG (epidermal gene panel) | also measured |
| --- | --- | --- | --- | --- | --- | --- | --- |
| CCC(=O)OC/C=C(C)/C=C/C=C(C)/C=C/C1=C(C)CCCC1(C)C [retinol propionate] | down-regulated with statistical significance | strongly up-regulate | strongly up-regulated | tRA>retinol>retinol propionate | up-regulated | significantly down-regulated |  |
| CC1=C(/C=C/C(C)=C/C=C/C(C)=C/CO)C(C)(C)CCC1 [retinol] |  |  |  | tRA>retinol>retinol propionate | up-regulated | significantly down-regulated |  |
| CC1=C(/C=C/C(C)=C/C=C/C(C)=C/C(=O)O)C(C)(C)CCC1 [tRA, trans-retinoic acid] | down-regulated with statistical significance | strongly up-regulate | strongly up-regulated | tRA>retinol>retinol propionate | up-regulated | significantly down-regulated | response of retinoid metabolism genes, tRA compared with RP ([1]; 37° C., 50% relative humidity, 48 hours to 7 days (FIGS. 6A-6C)): stronger response |
| TGFβ-1: endogenous gene stimulative compound, known regulator of dermal matrix genes; used as positive control |  |  |  |  |  |  | regulation of ELN and LOXL2 (dermal gene panel; [2]): did not show statistically significant up-regulation; regulation of FN1, COL1A1 and COL3A1 (dermal gene panel; [2]): significantly up-regulated; statistically significant up-regulation of ELN and LOXL2 across a majority of donors (dermal gene panel; 37° C., 7 days, 50% relative humidity, media 20 ng/ml, five donors (FIG. 9A)): did at 37 °C; regulation of FN1, LOXL2, COL3A1, ELN and LOXL1 (dermal gene panel; 24 hrs, media application 20 ng/ml, single donor, 37° C., 50% relative humidity (FIG. 8A)): significantly regulated; number of statistically significant genes up-regulated at 37° C. versus 33° C. (dermal gene panel; 7 days, 50% relative humidity, media 20 ng/ml, nine dermal genes): increased dramatically; donor tissues with statistically significant up-regulation of at least FN1, COL1A1 and ELN (dermal gene panel; media 20 ng/ml, 11 days, 33° C., 70% relative humidity, eight donor tissues (FIG. 15)): 80%; time of most robust response of dermal genes (dermal gene panel; media application 20 ng/ml, single donor, 37° C., 50% relative humidity, 1 to 7 days (FIG. 8A)): between Day 5 and Day 7; regulation of FN1, COL1A1 and COL3A1 (dermal gene panel; media applied 20 ng/ml, single donor, time course 24 hrs to 7 days (FIG. 2)): increasingly up-regulated; response of dermal genes (dermal gene panel; media supplied (FIGS. 2, 4, 7 and 8)): strong, consistent, up-regulation response |
| palmitoyl-lysine-threonine [peptide] |  |  |  |  |  |  | regulation of TGFβ-2 and TGFβ-3 (TGFβ-2 and TGFβ-3): up-regulated |
